Results published in patent publication US20100144708A1, “HETEROCYCLIC COMPOUNDS CONTAINING NITROGEN ATOMS OR PHARMACEUTICALLY ACCEPTABLE SALTS THEREOF, PROCESS FOR THE PREPARATION THEREOF AND PHARMACEUTICAL COMPOSITION COMPRISING THE SAME FOR TREATMENT OF CANCER” (Korea Research Instititute of Bioscience and Biotechnology, priority 2006, published 2010).

What was measured:
Format in all cases: cell-based, Human
[1] = tested on: ACHN (kidney cancer); test: Test for inhibition of tumor cell growth (SRB), ACHN; details: Homo sapiens, ACHN; 48 hours, SRB staining
Protocol: (§1) Human tumor cell lines, PC-3 (prostate cancer, ATCC, USA), MBA-MB-231 (breast cancer, ATCC, USA), ACHN (kidney cancer, ATCC, USA), and NUGC-3 (gastric cancer, ATCC, USA) were cultured in RPMI 1640 media containing 10% fetal bovine serum (FBS).
(§2) In order to measure anticancer activity, a suitable concentration of cells in RPMI 1640 media containing 5% fetal bovine serum (about 5×10^4 cells/□) was aliquotted in 96-well plates, and cultured in 5% CO2 at 37° C. On day one after aliquoting the cells, before the cells were treated with the compounds, in order to determine their concentration, 50[…] of 50% trichloroacetic acid was added to each well of time zero (T0) plate, and cells were fixed to determine zero point. The cells treated with the compounds were fixed on each well having 50[…] of 50% trichloroacetic acid after 48 hours. The final concentrations of the test compounds were 0.01, 0.03, 0.1, 0.3, and 1[…]/□. The fixed plate was washed with water and dried, and then 100[…] of 0.4% sulphorhodamine B (SRB) dissolved in 0.1% acetic acid was added to the each well to stain the cells. The plate was allowed to stand for 30 minutes, and then washed with 0.1% acetic acid. Then, the plate was dried at room temperature, and treated with 10 mM tris base (pH 10.5) to dissolve staining reagent. An absorbance measured at 540 nm was calculated as a percentage of the control group, and then the concentration of the compound that inhibited tumor cell growth (GI50(□/□)) by 50% was determined.

[2] = tested on: NUGC-3 (gastric cancer); test: Test for inhibition of tumor cell growth (SRB), NUGC-3; details: Homo sapiens, NUGC-3; 48 hours, SRB staining
Protocol: as §1, §2

[3] = tested on: MBA-MB-231 (breast cancer); test: Test for inhibition of tumor cell growth (SRB), MBA-MB-231; details: Homo sapiens; 48 hours, SRB staining
Protocol: as §1, §2

[4] = tested on: PC-3 (prostate cancer); test: Test for inhibition of tumor cell growth (SRB), PC-3; details: Homo sapiens; 48 hours, SRB staining; read-out: GI50 PC-3 (prostate ancer)
Protocol: as §1, §2

Row | Structure (SMILES) | GI50 [1] [µg/mL] | GI50 [2] [µg/mL] | GI50 [3] [µg/mL] | GI50 [4] [µg/mL]
1 | CCCCCCCCS(=O)(=O)N1CC[N+](C)(Cc2ccccc2)CC1 [Example 62, 1-benzyl-1-methyl-4-(octane-1-sulfonyl)piperazin-1-ium bromide] | > 10 | > 10 | > 10 | > 10
2 | CCCCCCCCCCCS(=O)(=O)N1CC[N+](CC)(Cc2ccccc2)CC1 [Example 64, 1-benzyl-1-ethyl-4-(undecane-1-sulfonyl)piperazin-1-ium bromide] | 1.43 | 0.36 | 2.07 | 0.67
3 | CCCCCCCCCCCS(=O)(=O)N1CC[N+](C)(Cc2ccccc2)CC1 [Example 65, 1-benzyl-1-methyl-4-(undecane-1-sulfonyl)piperazin-1-ium bromide] | 1.16 | 0.37 | 0.82 | 0.42
4 | CCCCCCCCCCCS(=O)(=O)N1CC[N+](C)(Cc2ccc(F)cc2)CC1 [Example 66, 1-(4-fluorobenzyl)-1-methyl-4-(undecane-1-sulfonyl)piperazin-1-ium bromide] | 1.24 | 1.06 | 1.47 | 0.56
5 | C=CC[N+]1(CC)CCN(S(=O)(=O)CCCCCCCCCCCCCC)CC1 [Example 67, 1-allyl-1-ethyl-4-(tetradecane-1-sulfonyl)piperazin-1-ium bromide] | 0.51 | 0.6 | 1.05 | 0.87
6 | CCCCCCCCCCCCCCS(=O)(=O)N1CC[N+](CC)(Cc2ccc(F)cc2)CC1 [Example 68, 1-ethyl-1-(4-fluorobenzyl)-4-(tetradecane-1-sulfonyl)piperazin-1-ium bromide] | 1.19 | 1.05 | 1.59 | 0.71
7 | CCCCCCCCCCCCCCS(=O)(=O)N1CC[N+](C)(Cc2ccccc2)CC1 [Example 70, 1-benzyl-1-methyl-4-(tetradecane-1-sulfonyl)piperazin-1-ium bromide] | 1.11 | 0.53 | 0.87 | 0.49
8 | CCCCCCCCCCCCCCS(=O)(=O)N1CC[N+](C)(Cc2ccc(F)cc2)CC1 [Example 71, 1-(4-fluorobenzyl)-1-methyl-4-(tetradecane-1-sulfonyl)piperazin-1-ium bromide] | 1.42 | 0.82 | 1.14 | 0.65
9 | C=CC[N+]1(CC)CCN(S(=O)(=O)CCCCCCCCCCCCCCCCCC)CC1 [Example 72, 1-allyl-1-ethyl-4-(octadecane-1-sulfonyl)piperazin-1-ium bromide] | 0.71 | 0.57 | 1.37 | 0.73
10 | CCCCCCCCCCCCCCCCCCS(=O)(=O)N1CC[N+](CC)(Cc2ccccc2)CC1 [Example 73, 1-benzyl-1-ethyl-4-(octadecane-1-sulfonyl)piperazin-1-ium bromide] | 1.87 | 0.85 | 1.75 | 0.8
11 | C=CC[N+]1(C)CCN(S(=O)(=O)CCCCCCCCCCCCCCCCCC)CC1 [Example 74, 1-allyl-1-methyl-4-(octadecane-1-sulfonyl)piperazin-1-ium bromide] | 1.25 | 0.85 | 1.72 | 1
12 | CCCCCCCCCCS(=O)(=O)N1CC[N+](C)(C)CC1 [Example 75, 4-(decane-1-sulfonyl)-1,1-dimethyl-piperazin-1-ium iodide] | 4.45 | 3.29 | > 10 | 1.84
13 | CCCCCCCCCCS(=O)(=O)N1CC[N+](C)(Cc2ccccc2)CC1 [Example 76, 1-benzyl-4-(decane-1-sulfonyl)-1-methyl-piperazin-1-ium bromide] | 3.5 | 0.99 | 4.02 | 0.54
14 | C=CC[N+]1(C)CCN(S(=O)(=O)CCCCCCCCCC)CC1 [Example 77, 1-allyl-4-(decane-1-sulfonyl)-1-methyl-piperazin-1-ium bromide] | 3.47 | 1.55 | > 10 | 0.83
15 | CCCCCCCCCCS(=O)(=O)N1CC[N+](C)(CC)CC1 [Example 78, 4-(decane-1-sulfonyl)-1-ethyl-1-methyl-piperazin-1-ium iodide] | 4.15 | 1.81 | > 10 | 1.06
16 | CCCCCCCCCCS(=O)(=O)N1CC[N+](CC)(Cc2ccccc2)CC1 [Example 79, 1-benzyl-4-(decane-1-sulfonyl)-1-ethyl-piperazin-1-ium bromide] | 4.41 | 1.24 | > 10 | 0.85
17 | C=CC[N+]1(CC)CCN(S(=O)(=O)CCCCCCCCCC)CC1 [Example 80, 1-allyl-4-(decane-1-sulfonyl)-1-ethyl-piperazin-1-ium bromide] | 3.07 | 0.89 | > 10 | 0.85
18 | CCCCCCCCCCCCS(=O)(=O)N1CC[N+](C)(Cc2ccccc2)CC1 [Example 81, 1-benzyl-4-(dodecane-1-sulfonyl)-1-methyl-piperazin-1-ium bromide] | 1.48 | 0.58 | 1.49 | 0.61
19 | C=CC[N+]1(C)CCN(S(=O)(=O)CCCCCCCCCCCC)CC1 [Example 82, 1-allyl-4-(dodecane-1-sulfonyl)-1-methyl-piperazin-1-ium bromide] | 0.86 | 0.75 | 1.4 | 0.71
20 | CCCCCCCCCCCCS(=O)(=O)N1CC[N+](C)(CC)CC1 [Example 83, 4-(dodecane-1-sulfonyl)-1-ethyl-1-methyl-piperazin-1-ium iodide] | 0.69 | 0.45 | 1.42 | 0.61
21 | CCCCCCCCCCCCS(=O)(=O)N1CC[N+](CC)(Cc2ccccc2)CC1 [Example 84, 1-benzyl-4-(dodecane-1-sulfonyl)-1-ethyl-piperazin-1-ium bromide] | 1.12 | 0.75 | 1.35 | 0.74
22 | C=CC[N+]1(CC)CCN(S(=O)(=O)CCCCCCCCCCCC)CC1 [Example 85, 1-allyl-4-(dodecane-1-sulfonyl)-1-ethyl-piperazin-1-ium bromide] | 0.53 | 0.22 | 1.01 | 0.41
23 | CCCCCCCCCCS(=O)(=O)N1CC[N+](C)(Cc2ccc(F)cc2)CC1 [Example 86, 4-(decane-1-sulfonyl)-1-(4-fluorobenzyl)-1-methyl-piperazin-1-ium bromide] | 3.79 | 1.99 | 4.48 | 0.88
24 | CCCCCCCCCCS(=O)(=O)N1CC[N+](CC)(Cc2ccc(F)cc2)CC1 [Example 87, 4-(decane-1-sulfonyl)-1-ethyl-1-(4-fluorobenzyl)-piperazin-1-ium bromide] | > 10 | 1.56 | > 10 | 1.25
25 | CCCCCCCCCCCCS(=O)(=O)N1CC[N+](C)(Cc2ccc(F)cc2)CC1 [Example 88, 4-(dodecane-1-sulfonyl)-1-(4-fluorobenzyl)-1-methyl-piperazin-1-ium bromide] | 1.37 | 0.93 | 1.59 | 0.68
26 | CCCCCCCCCS(=O)(=O)N1CC[N+](CC)(Cc2cccc([N+](=O)[O-])c2)CC1 [Example 89, 1-ethyl-1-(3-nitrobenzyl)-4-(nonylsulfonyl)piperazin-1-ium bromide] | > 10 | > 10 | > 10 | 4.02
27 | CCCCCCCCCCCCS(=O)(=O)N1CC[N+](C)(Cc2ccc(C)cc2)CC1 [Example 90, 4-(dodecane-1-sulfonyl)-1-methyl-1-(4-methylbenzyl)piperazin-1-ium bromide] | 3.22 | 1.98 | 2.56 | 1.57
28 | CCCCCCCCCCS(=O)(=O)N1CC[N+](CC)(Cc2cccc([N+](=O)[O-])c2)CC1 [Example 91, 4-(decane-1-sulfonyl)-1-ethyl-1-(3-nitrobenzyl)piperazin-1-ium bromide] | 4.82 | 1.54 | > 10 | 0.83
29 | CCCCCCCCCCCS(=O)(=O)N1CC[N+](CC)(CC)CC1 [Example 92, 1,1-diethyl-4-(undecane-1-sulfonyl)piperazin-1-ium iodide] | 0.81 | 0.21 | 1.62 | 0.45
30 | CCCCCCCCCCCS(=O)(=O)N1CC[N+](C)(CC)CC1 [Example 93, 1-ethyl-1-methyl-4-(undecane-1-sulfonyl)piperazin-1-ium iodide] | 1.11 | 0.62 | 2.71 | 0.67
